Patent US20110146678A1, “PROCESS FOR IMPROVING CRYSTALLINITY” (priority 2008, published 2011)

Assays:
Type in all cases: physicochemical
[1] = Particle size by Sympatec HELOS laser diffraction / optical microscopy; conditions: for D(10) / D(50) / D(90): Sympatec HELOS laser diffraction
Excerpt: The particle size can be measured by laser diffraction techniques: Light from a laser is shone into a cloud of particles, which are suspended in a transparent gas such as air. The particles scatter the light; smaller particles scattering the light at larger angles than bigger particles. The scattered light can be measured by a series of photodetectors placed at different angles. This is known as the diffraction pattern for the sample. The diffraction pattern can be used to measure the size of the particles using well documented light scattering theory. The particles are assumed to be spherical but few particles are actually spherical. The particle diameters are calculated from the measured volume of the particle, but assume a sphere of equivalent volume.
Budesonide (5 g) was dissolved in 100 mL of dichloromethane. The samples of budesonide powder collected in the ultrasonic chamber were produced using a Büchi-290 laboratory-scale spray dryer […], Büchi, Switzerland). The solution was atomized using nitrogen at 7 bar flowing at approximately at 10 Lpm (Litre/minute). The aspirator was set at 100% and flow rate of solution was set to […]. The gas temperature was set to 120° C. Budesonide particles were collected the ultrasonic chamber connected to the end of high performance cyclone separator. In order to apply ultrasound to the spray dried particles, the collection ultrasonic chamber was filled with heptane thermoregulated at 25° C. and was fitted with an ultrasonic probe resonating at 20 kHz. Ultrasound at 20 W power was applied between 30 minutes and 1 hour. The resulting particle slurry was spray dried and particles characterized by optical microscopy and DSC (Differential Scanning calorimetry). The size of the particles were typically in the range of 1-7 μm.
The D(10), D(50), D(90) for two representative samples were 1.21, 3.03, 4.63 μm and 1.05, 2.99, 3.76 μm respectively as determined by Sympatec HELOS laser diffraction. […]

[2] = Aerosolisation efficiency of 500/25 FP/SX combination DPI formulation, NGI via Cyclohaler; conditions: 500/25 formulation
Protocol: Following content uniformity testing, […] of the blend containing the FP sample 3 blend or Advair was loaded into size 3 hydroxypropylmethyl cellulose capsules (HPMC, Shionogi Qualicaps S A, Basingstoke, UK). The capsules were stored at 44% RH for 24 h prior to in vitro performance testing.
Testing was performed using a Next Generation Impactor (NGI) with pre-separator, which was connected to a vacuum pump (GE Motors). Prior to testing, the pre-separator was filled with 15 ml of mobile phase and the cups of the NGI cups were coated with 1% v/v silicone oil in hexane to eliminate particle bounce.
For each experiment, two individual capsules of the same formulation were discharged into the NGI at 90 Lpm for 2.8 s via a Cyclohaler (TEVA Pharmaceuticals, Netherlands) to ensure both devices were operated such that 4 kPa pressure drop was generated.
Following aerosolization, the NGI apparatus was dismantled and the inhaler, capsules and each part of the NGI was washed down into known volumes of HPLC mobile phase. The mass of drug deposited on each part of the NGI was determined by HPLC. This protocol was repeated three times for each blend, following which, the fine particle dose (FPD) and fine particle fraction of the loaded dose (FPFLD) were determined. The FPD represented the mass of drug that was collected on stages 3-8 of the NGI.

[3] = pMDI formulation, particle fraction distribution on NGI stages; conditions: stage 5 cut-off 1.36 μm, listed as micronized material
Protocol: Both samples were produced in a similar manner to sample 2 of Example 2. Sample 1 was prepared from atomization of a 3% solution of fluticasone propionate in 20% dichloromethane in methanol (3 g in 100 ml) and Sample 5 was prepared from atomization of 3% solution in acetone (3 g in 100 ml). […] The FPF values were 11.80% and 13.80% on stage 5 for samples 5 and 1 respectively compared with 6.20% for micronized material.

[4] = Cyclohaler 90 Lpm, NGI stages 3-8

Row | SMILES | D(10) [1] [μm] | D(50) [1] [μm] | D(90) [1] [μm] | size of the particles, typical range ([1]; after ultrasound treatment and spray drying of slurry) | fine particle fraction for SX ([2]; Cyclohaler) [%] | fine particle fraction for the engineered FP ([2]; Cyclohaler) [%] | FPD for FP [2, 4] [µg] | FPD for SX [2, 4] [µg] | FPF on stage 5 of the NGI [3] [%]
1 | CCC(=O)O[C@]1(C(=O)SCF)[C@H](C)C[C@H]2[C@@H]3C[C@H](F)C4=CC(=O)C=C[C@]4(C)[C@@]3(F)[C@@H](O)C[C@@]21C [Sample 2, Fluticasone propionate] | 1.35 | 3.25 | 5.63 | 1-6 μm |  |  |  |  | 
2 | CCC(=O)O[C@]1(C(=O)SCF)[C@H](C)C[C@H]2[C@@H]3C[C@H](F)C4=CC(=O)C=C[C@]4(C)[C@@]3(F)[C@@H](O)C[C@@]21C [Sample 3, Fluticasone propionate] | 0.99 | 2.55 | 4.97 |  | 44 | 15.8 | 79 | 11 | 
3 | CCC(=O)O[C@]1(C(=O)SCF)[C@H](C)C[C@H]2[C@@H]3C[C@H](F)C4=CC(=O)C=C[C@]4(C)[C@@]3(F)[C@@H](O)C[C@@]21C [Sample 4, fluticasone propionate, reference compound] | 1.14 | 2.67 | 5.11 |  |  |  |  |  | 
4 | CCC(=O)O[C@]1(C(=O)SCF)[C@H](C)C[C@H]2[C@@H]3C[C@H](F)C4=CC(=O)C=C[C@]4(C)[C@@]3(F)[C@@H](O)C[C@@]21C [micronized FP, Fluticasone Propionate] |  |  |  |  |  |  |  |  | 6.20
